Data set [1] in a line: Molar enthalpy of transition or fusion. The conditions noted are these: DSC.
The conditions of data set [2]: for Normal melting temperature: DTA; for mass density: 103 K, 101.33 kPa, X-ray diffraction.

Structures are written as SMILES. ± gives the expanded uncertainty stated by the source.

`CO[C@H](C(=O)[O-])c1ccccc1.C[C@@H]([NH3+])C1CCCCC1`: the “Molar enthalpy of transition or fusion” value in data set [1] (Crystal) turned out to be 10.9 ± 2.2 kcal/mol. Further, in data set [2] (Crystal), the Normal melting temperature was 187.40 ± 0.5 °C.

Turning to `COC(C(=O)O)c1ccccc1` (configuration not stated) [2-methoxy-2-phenylacetic acid], the “Molar enthalpy of transition or fusion” value in data set [1] (Crystal) was found to be 6 ± 1.2 kcal/mol. For the same compound, the Normal melting temperature in data set [2] (Crystal) worked out at 70.60 ± 0.5 °C.

As a reminder, the mass density is mass per unit of volume. Regarding `CO[C@H](C(=O)[O-])c1ccccc1.C[C@H]([NH3+])C1CCCCC1`, the “Molar enthalpy of transition or fusion” value in data set [1] (Crystal 1) turned out to be 7.31 ± 1.48 kcal/mol; in data set [1] (Crystal 2), 9.16 ± 1.84 kcal/mol. Besides, the mass density in data set [2] (Crystal) amounted to 1149 ± 6 kg/m3. Moreover, the Normal melting temperature in data set [2] (Crystal 1) turned out to be 162.90 ± 0.5 °C; in data set [2] (Crystal 2) it was 166.30 ± 0.5 °C.

As for `CO[C@H](C(=O)O)c1ccccc1` [(S)-2-methoxy-2-phenylacetic acid], the “Molar enthalpy of transition or fusion” value in data set [1] (Crystal) turned out to be 4.51 ± 0.908 kcal/mol. Moreover, in data set [2] (Crystal), the mass density was 1311 ± 7 kg/m3 and the Normal melting temperature worked out at 69.30 ± 0.5 °C.

The record behind these values is the NIST ThermoML archive (doi:10.1016/j.tca.2016.11.017).
